Test results published in patent US20240391958A1, “KEANUMYCINS AND USES THEREOF IN MEDICINE AND PLANT PROTECTION” (Leibniz-Institut für Naturstoff-Forschung und …, priority 2023, published 2024).
≈ marks a conversion by molar mass, not a printed value. Where “and” joins values, the source holds several entries; their conditions need not be identical. Identical values can stand only once. Like-named read-outs stand apart in the source and are kept apart here. Where a SMILES comes first, the peptide text is derived from it. Bridges are numbered along the chain shown (N, C = ends). [ ]: non-standard residue; d: D form. The star is where a group is joined. X1 = CCCCCCCCCCCC[C@@H](O)[C@@H](O)CC(=O)*; Asp(3S-OH) = N[C@H](C(=O)O)[C@H](O)C(=O)O; Thr(4-Cl) = N[C@H](C(=O)O)[C@H](O)CCl; aThr = C[C@H](O)[C@H](N)C(=O)O; d(hSer) = N[C@H](CCO)C(=O)O; dDab = NCC[C@@H](N)C(=O)O; Dab = NCC[C@H](N)C(=O)O; Dhb = C/C=C(\N)C(=O)O

What was measured:
[1] = system: C. albicans; experiment: Membrane permeabilization assay using SYTOX Green; type: cell-based, Candida albicans; details: 4 μg mL-1 in 1% DMSO
Source text: Only isolated cells are stained, which can be explained by the fact that the dye can also be used to distinguish dead from live cells. Scale bar=100 μm.
To finally examine if keanumycin A is a membrane-active compound, the inventors performed a membrane permeabilization assay using SYTOX Green (FIG. 6). As a cell-impermeant dye, SYTOX Green enters the cell upon loss of membrane integrity and binds to DNA, which results in fluorescently stained cells. […] Thus, the keanumycins are membrane-active compounds that disturb the structure of the fungal […].

[2] = system: C. albicans; experiment: Genome-wide microarray, transcription rate change; type: cell-based, Candida albicans; details: sublethal concentration, 1-h exposure, vs nontreated
[3] = system: D. discoideum cells (AX2); experiment: Amoebicidal activity against D. discoideum (cell count, CASY); type: cell-based; details: Dictyostelium discoideum; 72 h, 22 °C, average of two experiments
Method: Amoebicidal activity of keanumycin A against D. discoideum was determined using a previously published method. In brief, 3000 D. discoideum cells (AX2) were cultured in 96-well plates (Sarstedt) in 200 μL HL5 medium containing 1% DMSO (Carl Roth) and a specified amount of compound (starting from 0.5 μM; 2-fold serial dilution) in triplicates at 22° C. After 72 h the cell concentration was determined according to the manufacturers instruction using a CASY® Cell Counter+Analyser System (Model TT, Roche Innovatis AG) equipped with a 60 μm capillary and the evaluation cursor set to 7.5-17.5 μm. The viable cell concentration (including standard deviation) was plotted against the logarithmic concentration of the compound and the IC50 value was determined using PRISM (GraphPad, Version 5.03).

[4] = system: Botrytis cinerea SF011406; experiment: Broth dilution method (NCCLS); type: cell-based
Method: (§1) The activity assay was performed using the broth dilution method according to the EUCAST DEFINITIVE DOCUMENT E.DEF 9.3.2. B. cinerea and A. solani were incubated according to the Methods for dilution antimicrobial susceptibility tests for bacteria that grow aerobically by the NCCLS. Keanumycin A was dissolved in DMSO.

[5] = system: Alternaria solani SF003858; experiment: Broth dilution method (NCCLS); type: cell-based; details: 22 °C
Method: as §1

[6] = system: Candida albicans; experiment: Disk diffusion test; type: cell-based; details: 1 mg/mL in MeOH, 50 μL per 9 mm hole, 24 h 37 °C
Method: (§2) A qualitative screen of different microorganisms was performed using a disk diffusion test. Each microorganism was plated on Mueller Hinton agar plates and 9 mm holes were punched out. The respective compounds were dissolved in the indicated solvent to yield solutions of specified concentrations. 50 μL of the respective solutions were placed in each hole. The plates were incubated for 24 h at 37° C. After incubation, the size of inhibition zones was determined.

[7] = system: Pseudomonas aeruginosa SG 137; experiment: Disk diffusion test; type: cell-based; details: 1 mg/mL in MeOH, 50 μL per 9 mm hole, 24 h 37 °C
Method: as §2

[8] = system: Bacillus subtilis; experiment: Disk diffusion test; type: cell-based; details: 1 mg/mL in MeOH, 50 μL per 9 mm hole, 24 h 37 °C
Method: as §2

[9] = system: Staphylococcus aureus (MRSA) 134/94; experiment: Disk diffusion test; type: cell-based; details: 1 mg/mL in MeOH, 50 μL per 9 mm hole, 24 h 37 °C
Method: as §2

[10] = system: Penicillium notatum; experiment: Disk diffusion test; type: cell-based; details: 1 mg/mL in MeOH, 50 μL per 9 mm hole, 24 h 37 °C; methanol alone 10 mm
Method: as §2

[11] = system: Staphylococcus aureus SG 511; experiment: Disk diffusion test; type: cell-based; details: 1 mg/mL in MeOH, 50 μL per 9 mm hole, 24 h 37 °C
Method: as §2

[12] = system: Pseudomonas aeruginosa K799/61; experiment: Disk diffusion test; type: cell-based; details: 1 mg/mL in MeOH, 50 μL per 9 mm hole, 24 h 37 °C
Method: as §2

[13] = system: Escherichia coli; experiment: Disk diffusion test; type: cell-based; details: 1 mg/mL in MeOH, 50 μL per 9 mm hole, 24 h 37 °C
Method: as §2

[14] = system: Mycobacterium vaccae; experiment: Disk diffusion test; type: cell-based; details: 1 mg/mL in MeOH, 50 μL per 9 mm hole, 24 h 37 °C
Method: as §2

[15] = system: Sporobolomyces salmonicolor; experiment: Disk diffusion test; type: cell-based; details: 1 mg/mL in MeOH, 50 μL per 9 mm hole, 24 h 37 °C; methanol alone 10 mm
Method: as §2

[16] = system: Enterococcus faecalis (VRE) 1528; experiment: Disk diffusion test; type: cell-based; details: 1 mg/mL in MeOH, 50 μL per 9 mm hole, 24 h 37 °C
Method: as §2

[17] = system: C. albicans homozygous knockout mutants; experiment: Screen of homozygous knockout mutants for growth differences; type: cell-based, Candida albicans; details: absence vs presence of a sublethal concentration
Source text: To see if keanumycin A triggers the same canonical Ire1-Hac1 UPR pathway, the inventors looked at the splicing of HAC1 mRNA, which is regulated by Ire1. […] Since no other specific signaling pathway stood out, the inventors screened homozygous knockout mutants for significant growth differences in the absence and presence of a sublethal concentration of the NRLP. […] PLB5 is an important gene for phospholipid homeostasis and PMT6 codes for a transmembrane protein mannosyltransferase, which is involved in the construction of the outmost mannan cell wall layer in C. albicans.

[18] = system: C. albicans strain SC5314; experiment: MIC against C. albicans SC5314; type: cell-based; details: Candida albicans

SMILES: C/C=C1\NC(=O)[C@H]([C@H](C)O)NC(=O)[C@H](CCN)NC(=O)[C@@H](CCO)NC(=O)CNC(=O)[C@@H](CCN)NC(=O)[C@@H](NC(=O)C[C@H](O)[C@H](O)CCCCCCCCCCCC)COC(=O)[C@H]([C@H](O)CCl)NC(=O)[C@H]([C@H](O)C(=O)O)NC1=O [Keanumycin A, keanumycin A] (X1-S[dDab]G[d(hSer)][Dab][aThr][Dhb][Asp(3S-OH)][Thr(4-Cl)]; ester 1-C)
- membrane permeabilization (SYTOX Green staining) [1]: permeabilizes the cell wall of the fungi
- membrane permeabilization (SYTOX Green staining) ([1]; listed as keanumycin A): staining of all cells
- transcription rate change, ERG3 ([2]; ergosterol biosynthesis): −1.83 log2-fold change
- transcription rate change, IPT1 ([2]; sphingolipid biosynthesis): −0.44 log2-fold change
- transcription rate change, ORM1 ([2]; sphingolipid biosynthesis): 0.55 log2-fold change
- transcription rate change, SCS7/FAH1 ([2]; sphingolipid biosynthesis): −1.10 log2-fold change
- transcription rate change, SYR2/SUR2 ([2]; sphingolipid biosynthesis): 0.66 log2-fold change
- IC50 [3]: 4.4 nM
- MIC ([4]; Botrytis cinerea SF011406, NCCLS, 22 °C): 0.08 µg/mL
- MIC ([4]; Botrytis cinerea, SF011406, Botrytis cinerea, NCCLS, 22 °C, read-out: MIC): 0.07 µM
- MIC ([4]; Botrytis cinerea, SF011406, Botrytis cinerea, read-out: MIC): 0.069 µM
- MIC [5]: 1.07 µM and 1.25 µg/mL
- Inhibition area diameter [6]: 30 mm
- Inhibition area diameter [7]: 0 mm
- Inhibition area diameter [8]: 11 mm
- Inhibition area diameter [9]: 0 mm
- Inhibition area diameter [10]: 26 mm
- Inhibition area diameter [11]: 10 mm
- Inhibition area diameter [12]: 0 mm
- Inhibition area diameter [13]: 0 mm
- Inhibition area diameter [14]: 13 mm
- Inhibition area diameter [15]: 28 mm
- Inhibition area diameter [16]: 12 mm
- growth differences of knockout mutants [17]: most prominent growth differences were observed for Δmkc1, Δplb5, and Δpmt6
- MIC [18]: 1.72 µM (≈ 2.01 µg/mL)
